Values belong to the compound of their own block, whether it stands above or below them.
Tests used:
hSGLT2 = hSGLT2 (Homo sapiens (Human), UniProt P31639); experiment: IC50 of inhibition on SGLT2 (method of Meng et al., J. Med. Chem. 2008); format: cell-based
[1] = Influencing factors test: light stability; format: physicochemical; details: listed as I-D1-6 raw materials
Description: (§1) The appearance, number of impurity and the amount of impurity (measured by HPLC) are compared with that of day 0.

[2] = Influencing factors test: higher humidity stability; format: physicochemical; details: listed as I-D1-6 raw materials
Description: as §1

hSGLT1 = hSGLT1 (Homo sapiens (Human), UniProt P13866); experiment: IC50 of inhibition on SGLT1 (method of Meng et al., J. Med. Chem. 2008); format: cell-based; details: compared with methoxyl and methyl analogues of Table 3
[3] = Influencing factors test: higher temperature stability; format: physicochemical; details: listed as I-D1-6 raw materials
Description: as §1

[4] = test system: SD rats (type 2 diabetes model); experiment: Urine glucose excretion in streptozotocin/high-fat high-sucrose diet type 2 diabetes model rats, glucose-oxidase method; format: in vivo, rat; details: for Urine glucose excretion: 6 mg/kg intragastric, glucose 2 g/kg at 0.5 h, urine collected 0-12 h
Protocol: The health SD rats are injected intraperitoneally with multiple low doses of streptozotocin for modeling (type 2 diabetes model) after feeding with high-fat and high-sucrose diet, and the content of blood glucose is measured before and after modeling. After the modeling successful, the rats for modeling are randomly divided (8 rats/group) into one blank group (administering the same volume of 0.5% CMC sodium solution) and several groups for compounds to be tested (6 mg/kg) according to the content of 24-hour urine glucose and the body weight. Rats in each group are fasted for 16 hours before experiment. The experimental rats are administered intragastrically with glucose (2 g/kg) at 0.5 h after intragastrical administration with compounds to be tested. The urine is collected at the time-period of 0-12 h after administration, and the urine glucose values are measured at each time-period by glucose-oxidase method. […]

[5] = compared with methoxyl and methyl analogues of Table 3

Chain of hSGLT2 (P31639 whole entry): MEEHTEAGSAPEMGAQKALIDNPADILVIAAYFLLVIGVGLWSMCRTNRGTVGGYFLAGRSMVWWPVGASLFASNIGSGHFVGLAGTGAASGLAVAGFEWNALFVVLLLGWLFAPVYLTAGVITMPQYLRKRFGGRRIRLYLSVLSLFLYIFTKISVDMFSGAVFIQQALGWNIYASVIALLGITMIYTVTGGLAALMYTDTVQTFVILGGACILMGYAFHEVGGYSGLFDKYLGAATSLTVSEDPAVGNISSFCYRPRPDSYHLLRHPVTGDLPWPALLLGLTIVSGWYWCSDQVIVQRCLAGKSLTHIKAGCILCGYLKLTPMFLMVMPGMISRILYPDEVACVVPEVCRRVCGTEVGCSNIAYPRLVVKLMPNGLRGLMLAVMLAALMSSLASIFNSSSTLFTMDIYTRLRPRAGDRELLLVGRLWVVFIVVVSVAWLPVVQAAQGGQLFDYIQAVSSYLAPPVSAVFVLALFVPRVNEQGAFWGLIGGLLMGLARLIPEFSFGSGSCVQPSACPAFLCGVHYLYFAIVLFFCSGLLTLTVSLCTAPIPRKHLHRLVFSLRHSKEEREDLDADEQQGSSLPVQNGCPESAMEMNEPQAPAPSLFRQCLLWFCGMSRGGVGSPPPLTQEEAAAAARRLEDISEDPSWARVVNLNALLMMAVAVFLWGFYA
Chain of hSGLT1 (P13866 whole entry): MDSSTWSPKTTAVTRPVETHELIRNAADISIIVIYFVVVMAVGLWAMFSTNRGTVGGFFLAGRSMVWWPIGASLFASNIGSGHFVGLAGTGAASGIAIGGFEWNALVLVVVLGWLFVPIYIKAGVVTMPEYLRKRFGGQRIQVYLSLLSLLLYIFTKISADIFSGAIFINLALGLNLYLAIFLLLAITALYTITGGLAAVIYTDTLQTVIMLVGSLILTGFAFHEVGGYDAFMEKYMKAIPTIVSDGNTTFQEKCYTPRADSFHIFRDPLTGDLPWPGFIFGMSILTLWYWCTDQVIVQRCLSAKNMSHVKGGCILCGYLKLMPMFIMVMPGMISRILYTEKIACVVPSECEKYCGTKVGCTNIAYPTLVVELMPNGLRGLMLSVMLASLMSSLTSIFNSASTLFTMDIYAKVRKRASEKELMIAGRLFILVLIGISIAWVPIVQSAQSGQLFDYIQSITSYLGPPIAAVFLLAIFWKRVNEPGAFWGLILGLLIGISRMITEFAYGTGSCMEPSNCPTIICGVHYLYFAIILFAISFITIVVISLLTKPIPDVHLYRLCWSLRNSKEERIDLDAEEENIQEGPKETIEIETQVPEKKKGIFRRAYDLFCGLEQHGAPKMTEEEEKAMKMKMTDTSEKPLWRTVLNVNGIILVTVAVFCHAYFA

SMILES: CCOc1ccc(Cc2cc(C3OC(C)C(O)C(O)C3O)ccc2Cl)cc1 [I-D1-6, (1S)-1-[4-chloro-3-(4-ethoxybenzyl)phenyl]-1,6-dideoxy-D-glucose]
inhibition to SGLT2 (comparison in words) (hSGLT2; [5]): much stronger inhibition to SGLT2
selectivity on SGLT1/SGLT2 (comparison in words) (hSGLT2; [5]): much better selectivity on SGLT1/SGLT2
Appearance ([1]; light (natural daylight, about 80000 Lx), day 0): a white, foam-like
Appearance ([1]; light, day 7): a white, foam-like
Appearance ([1]; light, day 14): a white, foam-like
Appearance ([2]; higher humidity (30% relative humidity at 30° C.), day 0): white, foam-like
Appearance ([2]; higher humidity, day 7): white foam-like
Appearance ([2]; higher humidity, day 14): white foam-like
inhibition to SGLT1 (comparison in words) (hSGLT1): much less inhibition to SGLT1
Number of impurity ([3]; 45° C., day 0, HPLC): 7
Total amount of impurity (%) ([3]; 45° C., day 0, HPLC): 0.89%
Number of impurity ([3]; 45° C., day 7, HPLC): 8
Total amount of impurity (%) ([3]; 45° C., day 7, HPLC): 0.97%
Appearance ([3]; 45° C., day 7): white, foam-like
Number of impurity ([3]; 45° C., day 14, HPLC): 9
Appearance ([3]; 45° C., day 14): white, foam-like
Appearance ([3]; higher temperature (45° C.), day 0): white, foam-like
urine glucose excretion effect (comparison in words) ([4]; compared with analogues or non-deoxy compounds): stronger urine glucose excretion effect

SMILES: CCOc1ccc(Cc2cc(C3OC(CO)CC(O)C3O)ccc2Cl)cc1 (centres unmarked) [drawing 229]
Urine glucose excretion [4]: 880 mg/200 g body weight of the rat

SMILES: CCc1ccc(Cc2c(Cl)ccc3c2COC32OC(CO)C(O)C(O)C2O)cc1 (centres unmarked) [drawing 258]
Urine glucose excretion [4]: 755 mg/200 g body weight of the rat

SMILES: CCOc1ccc(Cc2cc(C3CCC(O)C(CO)S3)c(OC)cc2C)cc1 (centres unmarked) [drawing 266]
Urine glucose excretion [4]: 730 mg/200 g body weight of the rat

SMILES: COc1ccc(Cc2cc(C3OC(C)C(O)C(O)C3O)ccc2Cl)cc1 (centres unmarked) [drawing 311]
Selectivity IC50 (hSGLT1)/IC50 (hSGLT2) (hSGLT2): 26

Selectivity IC50 (hSGLT1)/IC50 (hSGLT2) (hSGLT2): 24
SMILES: CCOc1ccc(Cc2cc(C3OC(C)C(O)C(O)C3O)ccc2C)cc1 (centres unmarked) [drawing 313]
